# Laboratory results published in PMC6691788, “Design and synthesis of phthalazine-based compounds as potent anticancer agents with potential antiangiogenic activity via VEGFR-2 inhibition” (Journal of Enzyme Inhibition and Medicinal Chemistry, 2019).
# What was measured:
# HT29 = assay: NCI 60 cell panel SRB screen; type: cell-based; settings: Homo sapiens, HT-29
# UACC-257 = assay: NCI 60 cell panel SRB screen; type: cell-based; settings: Homo sapiens
# A549/ATCC = assay: NCI 60 cell panel SRB screen; type: cell-based; settings: Homo sapiens
# OVCAR-8 = assay: NCI 60 cell panel SRB screen; type: cell-based; settings: Homo sapiens
# VEGFR-2 tyrosine kinase = target: T1, VEGFR-2 tyrosine kinase (Homo sapiens, UniProt P35968); assay: In vitro VEGFR-2 tyrosine kinase assay (BPS Bioscience); type: biochemical; settings: read-out: VEGFR-2 % inhibition; 10 μM concentration
# T1 construct: purchased BPS Bioscience 40301
# Method in brief: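 For IC50, ADP formation after a 30-min 30 °C reaction was detected by ADP-Glo luminescence in duplicate, blank-subtracted and fitted as log inhibitor versus normalised response. The 10 µM single-dose test instead measured remaining ATP (Kinase-Glo Plus) after 40 min at 30 °C with poly(Glu,Tyr) substrate, 10 μM ATP, pH 7.4, 1% DMSO.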
# HOP-62 = assay: NCI 60 cell panel SRB screen; type: cell-based; settings: Homo sapiens
# MOLT-4 = assay: NCI 60 cell panel SRB screen; type: cell-based; settings: Homo sapiens
# OVCAR-4 = assay: NCI 60 cell panel SRB screen; type: cell-based; settings: Homo sapiens
# A498 = assay: NCI 60 cell panel SRB screen; type: cell-based; settings: Homo sapiens
# CAKI-1 = assay: NCI 60 cell panel SRB screen; type: cell-based, human
# MDA-MB 231/ATCC = assay: NCI 60 cell panel SRB screen; type: cell-based; settings: Homo sapiens
# SN12C = assay: NCI 60 cell panel SRB screen; type: cell-based; settings: Homo sapiens
# HOP-92 = assay: NCI 60 cell panel SRB screen; type: cell-based; settings: Homo sapiens
# SW-620 = assay: NCI 60 cell panel SRB screen; type: cell-based; settings: Homo sapiens
# NCI/ADR-RES = assay: NCI 60 cell panel SRB screen; type: cell-based; settings: Homo sapiens
# SK-MEL-28 = assay: NCI 60 cell panel SRB screen; type: cell-based; settings: Homo sapiens
# UO-31 = assay: NCI 60 cell panel SRB screen; type: cell-based; settings: Homo sapiens
# SF-268 = assay: NCI 60 cell panel SRB screen; type: cell-based; settings: Homo sapiens
# HS 578T = assay: NCI 60 cell panel SRB screen; type: cell-based; settings: Homo sapiens
# NCI-H322M = assay: NCI 60 cell panel SRB screen; type: cell-based; settings: Homo sapiens
# [1] = single dose 10 μM, read-out: percent cell growth promotion
# [2] = 5 log dose, 48 h, read-out: LC50 (the source's name)
# T1 sequence (P35968 20-1356): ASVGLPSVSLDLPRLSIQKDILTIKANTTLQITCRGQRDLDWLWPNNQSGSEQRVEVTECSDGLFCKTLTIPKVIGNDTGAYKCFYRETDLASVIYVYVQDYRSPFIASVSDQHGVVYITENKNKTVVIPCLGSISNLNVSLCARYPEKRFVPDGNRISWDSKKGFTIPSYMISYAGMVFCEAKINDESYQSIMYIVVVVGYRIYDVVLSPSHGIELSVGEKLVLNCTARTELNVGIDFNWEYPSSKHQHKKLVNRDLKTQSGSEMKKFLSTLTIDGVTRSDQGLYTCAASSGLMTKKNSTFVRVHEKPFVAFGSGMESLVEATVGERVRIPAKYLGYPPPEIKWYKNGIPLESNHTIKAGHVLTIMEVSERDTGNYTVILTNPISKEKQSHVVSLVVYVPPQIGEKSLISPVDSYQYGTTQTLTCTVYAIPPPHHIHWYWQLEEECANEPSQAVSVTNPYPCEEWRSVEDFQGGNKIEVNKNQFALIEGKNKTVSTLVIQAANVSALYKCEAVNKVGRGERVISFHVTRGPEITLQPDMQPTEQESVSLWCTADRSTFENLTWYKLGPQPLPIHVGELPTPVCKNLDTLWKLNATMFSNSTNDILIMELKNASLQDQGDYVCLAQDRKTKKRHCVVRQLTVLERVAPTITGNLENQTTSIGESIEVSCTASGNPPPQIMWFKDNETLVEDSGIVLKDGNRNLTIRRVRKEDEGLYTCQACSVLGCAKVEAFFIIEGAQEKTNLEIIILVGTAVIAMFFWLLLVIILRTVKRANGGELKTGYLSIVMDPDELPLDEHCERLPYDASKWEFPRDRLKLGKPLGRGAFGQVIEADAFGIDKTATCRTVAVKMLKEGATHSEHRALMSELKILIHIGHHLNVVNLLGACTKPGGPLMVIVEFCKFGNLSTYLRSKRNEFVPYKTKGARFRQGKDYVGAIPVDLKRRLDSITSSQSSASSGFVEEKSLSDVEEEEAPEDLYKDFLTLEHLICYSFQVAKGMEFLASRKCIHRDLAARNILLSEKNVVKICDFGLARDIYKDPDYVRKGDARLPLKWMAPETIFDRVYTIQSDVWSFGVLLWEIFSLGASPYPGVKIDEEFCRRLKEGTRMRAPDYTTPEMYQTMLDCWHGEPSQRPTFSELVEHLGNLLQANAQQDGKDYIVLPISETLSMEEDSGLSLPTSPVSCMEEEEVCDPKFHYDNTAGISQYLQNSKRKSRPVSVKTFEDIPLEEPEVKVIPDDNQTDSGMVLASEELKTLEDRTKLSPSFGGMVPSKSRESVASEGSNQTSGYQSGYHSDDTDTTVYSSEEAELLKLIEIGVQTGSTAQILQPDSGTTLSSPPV
structure (smiles),measurement,setting,value
"O=C(Nc1ccc(Cl)cc1)Nc1ccc(Nc2nncc3ccccc23)cc1 [Compound 6b, 1–(4-Chlorophenyl)-3–(4-(phthalazin-1-ylamino)phenyl)urea]",GI50,"HT29; HT29, 5 log dose",2.65 µM
same,IC (TGI),"HT29; HT29, 5 log dose",14.1 µM
same,CC50,"HT29; HT29, 5 log dose, 48 h, read-out: LC50 (the source's name)",60 µM
same,activity at 10 µM,"HT29; HT29, single dose 10 μM, read-out: percent cell growth promotion",32.4%
same,GI50,UACC-257; UACC-257,3.41 µM
same,IC (TGI),"UACC-257; UACC-257, read-out: TGI",10.8 µM
same,activity at 10 µM,"UACC-257; UACC-257, read-out: percent cell growth promotion",15.3%
same,CC50,"UACC-257; UACC-257, 5 log dose, 48 h, read-out: LC50 (the source's name)",33.5 µM
same,GI50,A549/ATCC; 5 log dose,3.03 µM
same,IC (TGI),A549/ATCC; 5 log dose,19.3 µM
same,LC50 (concentration killing 50% of cells),"A549/ATCC; 5 log dose, 48 h",> 100 µM
same,activity at 10 µM,A549/ATCC; [1],20.1%
same,GI50,"OVCAR-8; OVCAR-8, 5 log dose",3.12 µM
same,IC (TGI),"OVCAR-8; OVCAR-8, 5 log dose",12.4 µM
same,CC50,"OVCAR-8; OVCAR-8, 5 log dose, 48 h, read-out: LC50 (the source's name)",> 100 µM
same,activity at 10 µM,"OVCAR-8; OVCAR-8, single dose 10 μM, read-out: percent cell growth promotion",18.2%
same,inhibition at 10 µM,VEGFR-2 tyrosine kinase,20%
same,GI50,"HOP-62; HOP-62, 5 log dose",3 µM
same,IC (TGI),"HOP-62; HOP-62, 5 log dose",14.9 µM
same,CC50,"HOP-62; HOP-62, 5 log dose, 48 h, read-out: LC50 (the source's name)",74.9 µM
same,activity at 10 µM,"HOP-62; HOP-62, single dose 10 μM, read-out: percent cell growth promotion",20.6%
same,GI50,"MOLT-4; MOLT-4, 5 log dose",2.09 µM
same,IC (TGI),"MOLT-4; MOLT-4, 5 log dose",6.36 µM
same,CC50,"MOLT-4; MOLT-4, 5 log dose, 48 h, read-out: LC50 (the source's name)",> 100 µM
same,activity at 10 µM,"MOLT-4; MOLT-4, single dose 10 μM, read-out: percent cell growth promotion",-1.61%
same,GI50,"OVCAR-4; OVCAR-4, 5 log dose",1.97 µM
same,IC (TGI),"OVCAR-4; OVCAR-4, 5 log dose",8.17 µM
same,CC50,"OVCAR-4; OVCAR-4, 5 log dose, 48 h, read-out: LC50 (the source's name)",> 100 µM
same,activity at 10 µM,"OVCAR-4; OVCAR-4, single dose 10 μM, read-out: percent cell growth promotion",11.1%
same,GI50,"A498; A498, 5 log dose",3.79 µM
same,IC (TGI),"A498; A498, 5 log dose",18.8 µM
same,CC50,"A498; A498, 5 log dose, 48 h, read-out: LC50 (the source's name)",> 100 µM
same,activity at 10 µM,"A498; A498, single dose 10 μM, read-out: percent cell growth promotion",24.5%
same,TGI,"CAKI-1; CAKI-1, 5 log dose",12.5 µM
same,GI50,"CAKI-1; Homo sapiens, CAKI-1, 5 log dose",1.97 µM
same,CC50,"CAKI-1; Homo sapiens, CAKI-1, 5 log dose, 48 h, read-out: LC50 (the source's name)",88 µM
same,activity at 10 µM,"CAKI-1; Homo sapiens, CAKI-1, single dose 10 μM, read-out: percent cell growth promotion",20.6%
same,GI50,MDA-MB 231/ATCC; MDA-MB-231,3.4 µM
same,IC (TGI),"MDA-MB 231/ATCC; MDA-MB-231, read-out: TGI",15.9 µM
same,activity at 10 µM,"MDA-MB 231/ATCC; MDA-MB-231, read-out: percent cell growth promotion",36.6%
same,CC50,"MDA-MB 231/ATCC; MDA-MB-231, MDA-MDA 231/ATCC, 5 log dose, 48 h, read-out: LC50 (the source's name)",64.9 µM
same,GI50,SN12C; 5 log dose,4.58 µM
same,IC (TGI),SN12C; 5 log dose,37.2 µM
same,CC50,SN12C; [2],> 100 µM
same,activity at 10 µM,SN12C; [1],26.4%
same,GI50,"HOP-92; HOP-92, 5 log dose",2.55 µM
same,IC (TGI),"HOP-92; HOP-92, 5 log dose",7.26 µM
same,CC50,"HOP-92; HOP-92, 5 log dose, 48 h, read-out: LC50 (the source's name)",> 100 µM
same,activity at 10 µM,"HOP-92; HOP-92, single dose 10 μM, read-out: percent cell growth promotion",38.7%
same,GI50,"SW-620; SW-620, 5 log dose",3.16 µM
same,IC (TGI),"SW-620; SW-620, 5 log dose",18.6 µM
same,CC50,"SW-620; SW-620, 5 log dose, 48 h, read-out: LC50 (the source's name)",81.8 µM
same,activity at 10 µM,"SW-620; SW-620, single dose 10 μM, read-out: percent cell growth promotion",27%
same,GI50,NCI/ADR-RES; 5 log dose,2.79 µM
same,IC (TGI),NCI/ADR-RES; 5 log dose,26.3 µM
same,CC50,NCI/ADR-RES; [2],> 100 µM
same,activity at 10 µM,NCI/ADR-RES; [1],36.2%
same,GI50,SK-MEL-28; SK-MEL-28,3.04 µM
same,IC (TGI),"SK-MEL-28; SK-MEL-28, read-out: TGI",12.8 µM
same,activity at 10 µM,"SK-MEL-28; SK-MEL-28, read-out: percent cell growth promotion",44.1%
same,CC50,"SK-MEL-28; SK-MEL-28, 5 log dose, 48 h, read-out: LC50 (the source's name)",51.5 µM
same,GI50,"UO-31; UO-31, 5 log dose",1.9 µM
same,IC (TGI),"UO-31; UO-31, 5 log dose",15.8 µM
same,CC50,"UO-31; UO-31, 5 log dose, 48 h, read-out: LC50 (the source's name)",> 100 µM
same,activity at 10 µM,"UO-31; UO-31, single dose 10 μM, read-out: percent cell growth promotion",19%
same,GI50,"SF-268; SF-268, 5 log dose",3.19 µM
same,IC (TGI),"SF-268; SF-268, 5 log dose",28.1 µM
same,CC50,"SF-268; SF-268, 5 log dose, 48 h, read-out: LC50 (the source's name)",> 100 µM
same,activity at 10 µM,"SF-268; SF-268, single dose 10 μM, read-out: percent cell growth promotion",42.4%
same,GI50,HS 578T; Hs-578T,3.83 µM
same,IC (TGI),"HS 578T; Hs-578T, read-out: TGI",27.7 µM
same,activity at 10 µM,"HS 578T; Hs-578T, read-out: percent cell growth promotion",58.3%
same,CC50,"HS 578T; HS 578T, 5 log dose, 48 h, read-out: LC50 (the source's name)",> 100 µM
same,GI50,NCI-H322M; 5 log dose,5 µM
same,IC (TGI),NCI-H322M; 5 log dose,15 µM
same,CC50,NCI-H322M; [2],> 100 µM
same,activity at 10 µM,NCI-H322M; [1],64.3%
